Measured values taken from patent US20220235065A1 (Epizyme, Inc., priority 2016, published 2022).

These molecules were tested against T1, recombinant purified human EHMT2 913-1193 (Homo sapiens, UniProt Q96KQ7) (assay: EHMT2 enzyme assay on histone peptide substrate (3H-SAM Flashplate)). Conditions: read-out: EHMT2 PEP (IC50 μM).
T1 construct: Recombinant purified human EHMT2 913-1193 (55 μM) synthesized by Viva was used for all experiments; purchased Viva
T1 sequence (Q96KQ7 913-1193): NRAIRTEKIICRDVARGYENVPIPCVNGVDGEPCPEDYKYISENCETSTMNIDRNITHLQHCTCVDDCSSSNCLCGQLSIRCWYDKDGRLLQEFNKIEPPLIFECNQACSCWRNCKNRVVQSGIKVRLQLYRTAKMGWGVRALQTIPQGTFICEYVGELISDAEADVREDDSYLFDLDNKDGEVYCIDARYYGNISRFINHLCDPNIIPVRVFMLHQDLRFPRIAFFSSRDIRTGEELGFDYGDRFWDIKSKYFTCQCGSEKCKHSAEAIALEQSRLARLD
Assay type: biochemical
Summary of the method: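 Compounds (10-point 3-fold series, top 50 μM final, 2% DMSO) preincubated 30 min with 0.031 nM EHMT2 in 20 mM Bicine pH 7.5, 1 mM TCEP; reaction started with 3H-SAM and biotinylated H3 1-15 peptide, both at Km, run 60 min at room temperature. Flashplate capture; IC50 from four-parameter fit, triplicates.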
For `CNCc1cnn(-c2c(OC)ccc(Nc3nc(C)cc(NC)n3)c2F)c1` [Compound 317, N2-(2-fluoro-4-methoxy-3-(4-((methylamino)methyl)-1H-pyrazol-1-yl)phenyl)-N4,6-dimethylpyrimidine-2,4-diamine], the IC50 was under 0.1 µM.
`CNCc1cnn(-c2c(F)ccc(Nc3nc(C)cc(NC)n3)c2OC)c1` [Compound 318] gave an IC50 of 0.1 to 1 µM.
`CNCc1cnn(-c2cc(Nc3nc(C)cc(NC)n3)ccc2Br)c1` [Compound 319] showed an IC50 of under 0.1 µM.
Work on `CCc1ccc(Nc2nc(C)cc(NC)n2)cc1-n1cc(CNC)cn1` [Compound 320] yielded an IC50 of under 0.1 µM.
`CNc1cc(C)nc(Nc2ccc(OC)c(-n3cc(C4CCCN4)cn3)c2)n1` (stereo not shown) [Compound 321] showed an IC50 of under 0.1 µM.
In the case of `CNC1=Nc2cc(-n3cc(C4CCCN4)cn3)c(OC)cc2C12CCC2` (stereo not shown) [Compound 322], the IC50 is reported as under 0.1 µM.
Molecule `CNCc1cn(-c2cc(Nc3nc(C)cc(NC)n3)ccc2OC)nc1F` [Compound 323] has an IC50 of under 0.1 µM.
`CNCc1cc(-c2cc(Nc3nc(C)cc(NC)n3)ccc2OC)on1` [Compound 324] gave an IC50 of 0.1 to 1 µM.
`CNCc1cnn(-c2cc(Nc3nc(C)cc(NC)n3)ccc2C(F)(F)F)c1` [Compound 325] was tested, and the IC50 was under 0.1 µM.
For `CNC1=Nc2cc(-n3cc(C4CCCN4)cn3)c(Cl)cc2C12CCC2` (stereo not shown) [Compound 326], the IC50 was under 0.1 µM.
Molecule `CNCc1cnn(-c2c(Cl)ccc(Nc3nc(C)cc(NC)n3)c2Cl)c1` [Compound 327] has an IC50 of under 0.1 µM.
Molecule `CNCc1cnn(-c2c(Cl)ccc(Nc3nc(C)cc(NC)n3)c2F)c1` [Compound 328] has an IC50 of under 0.1 µM.
In the case of `CNCc1cnn(-c2c(F)ccc(Nc3nc(C)cc(NC)n3)c2Cl)c1` [Compound 329], the IC50 is reported as under 0.1 µM.
Molecule `CNc1cc(C)nc(Nc2ccc(Cl)c(-n3cc(C4CCCN4)cn3)c2)n1` (stereo not shown) [Compound 330] has an IC50 of under 0.1 µM.
With `CNCc1cc(-c2cc(Nc3nc(C)cc(NC)n3)ccc2OC)no1` [Compound 331] the IC50 was under 0.1 µM.
In the case of `CNc1cc(C)nc(Nc2ccc(OC)c(-c3cc4[nH]cc(C)c4cn3)c2)n1` [Compound 386], the IC50 is reported as under 0.1 µM.
